Source: US20150183890A1, “Methods for Formation of Cyclodextrin-Ursolic Acid Inclusion Complex” (Campbell Industries, priority 2013, published 2015)

Experiment: Aqueous solubility of cyclodextrin-ursolic acid inclusion complex versus ursolic acid alone
Type: physicochemical
Settings: aqueous solutions; CDUA compared with UA alone

aqueous solubility (in words): largely insoluble
Compound: C[C@H]1[C@H](C)CC[C@]2(C(=O)O)CC[C@]3(C)C(=CC[C@@H]4[C@@]5(C)CC[C@H](O)C(C)(C)[C@@H]5CC[C@]43C)[C@H]12 [UA, 3-β-hydroxy-urs-12-en-28-oic acid]
